Measurements from patent US20190307771A1, “METHODS AND COMPOSITIONS FOR THE TREATMENT OF CANCER AND METABOLIC DISEASES” (THE REGENTS OF THE UNIVERSITY OF CALIFORNIA, priority 2016, published 2019).
Entries after “also recorded” stand apart in the source; their conditions may differ. Read-outs that look alike come from different tables or passages of the source.

Experiments:
[1] = test system: HDAC1, HDAC4, SIRT1, cyclin A2 (CCNA2); assay: Western blot of protein deacetylases and cyclin A2 in HCT116 cells; type: cell-based; conditions: colon HCT116 cells; CDCA treatment or miR-22 mimic transfection
Experimental: HCT116 cells were transfected with either an miR-22 mimic or a scramble control, and 48 hours later the protein levels of HDAC4, SIRT1, and cyclin A2 were measured (FIG. 3B). The expression of all three proteins was reduced by treatment with the miR-22 mimic.
(§1) Western blot and immunoprecipitation were performed as described previously^22. Specific antibodies used included anti-NUR77, RARβ, SIRT1, β-actin, and IgG (Santa Cruz Biotechnology, Santa Cruz, Calif.), phospho-JNK1/2, total JNK1/2, cleaved caspase3, HDAC1 and HDAC4 (Cell Signaling Technology, Beverly, Mass.), and CCNA2 (Novus Biologicals, Littleton, Colo.). To detect protein acetylation of NUR77 and RARβ, cell lysates (500 μg) were incubated with anti-NUR77, RARβ, or IgG antibody (1 μg), precipitated by adding Dynabeads (30 μl, Life Technologies, Carlsbad, Calif.), and probed with anti-Acetyl-lysine antibody (Cell Signaling Technology, Beverly, Mass.). To study the interaction between RARβ and NUR77, whole-cell lysates were precipitated with anti-RARβ or NUR77 antibody followed by Western blot using anti-NUR77 or RARβ antibody.

[2] = test system: CYCLIN A2, HDAC1, HDAC4, SIRT1; assay: Protein levels in Huh7 liver cancer cells; conditions: liver Huh7 cells
miR-22 [3] = conditions: published data, cited from earlier work
[4] = test system: HDAC1, HDAC4, SIRT1, cyclin A2 (CCNA2); assay: Western blot of protein deacetylases and cyclin A2 in HCT116 cells; type: cell-based; conditions: 24 hours, RA 10 μM, butyrate 5 mM, SAHA 5 μM
NUR77 and RARβ [5] = assay: Immunoprecipitation/Western blot: protein acetylation of NUR77 and RARβ; type: cell-based; conditions: HCT116 cells; IP with anti-NUR77 or anti-RARβ, anti-acetyl lysine blot
Description: FIG. 12A depicts the expression levels of proteins that were extracted from HCT116 cells and immunoprecipitated by anti-NUR77 and RARβ antibodies or IgG, followed by Western blot using an anti-acetyl lysine antibody. […] The mRNA levels of NUR77 target genes BRE as well as CCND2 and RARβ target genes RARβ and CYP26A1 in HCT116 cells are shown in FIG. 12C.
(§2) NUR77 and RARβ acetylation status was also studied because protein acetylation alters nuclear receptor activity^37. […] To study the effect of RA/butyrate in modulating NUR77 and RARβ transcriptional activity, ChIP-qPCR and RT-PCR were performed to determine receptor binding to transcriptional regulatory regions and mRNA levels of downstream targets, respectively.
as §1

[6] = test system: retinoic acid receptor beta (RARβ); assay: RARB expression in HCT116 cells (qRT-PCR); type: cell-based; conditions: 24 hours, RA 10 μM, butyrate 5 mM, SAHA 5 μM
Experimental: (§3) Total RNA was extracted with TRIzol Reagent (Invitrogen, Carlsbad, Calif.), and cDNA was generated using High Capacity RNA-to-cDNA Kit (Applied Biosystems, Carlsbad, Calif.). qRT-PCR was performed on ABI 7900HT Fast Real time PCR system using Power SYBR® Green PCR Master Mix (Applied Biosystems, Carlsbad, Calif.).

RARβ = assay: ChIP-qPCR: RARβ binding to DR5 motif upstream of RARβ and CYP26A1 genes; type: cell-based; conditions: HCT116 cells
Experimental: as §2
(§4) Chromatin immunoprecipitation (ChIP)-qPCR ChIP-qPCR was performed as described previously^21. Briefly, chromatin lysate was precleared before incubation with an anti-H3K9AC antibody (Millipore. Billerica, Mass.), anti-HDAC1 and anti-HDAC4 (Cell signaling technology, Beverly, Mass.) or anti-SIRT1 antibody (Santa Cruz Biotechnology, Santa Cruz, Calif.). IgG (Santa Cruz Biotechnology, Santa Cruz, Calif.) and RNA Polymerase II antibody (Millipore, Billerica, Mass.) were used as negative and positive controls, respectively. Samples were incubated with Dynase beads at 4° C. overnight followed by de-crosslinking and purification. DNA fragments generated served as templates for qPCR using Power SYBR1 Green PCR Master Mix.

miR-22 [7] = assay: miR-22 expression in HCT116 cells (qRT-PCR); type: cell-based; conditions: 24 hours, RA 10 μM, butyrate 5 mM, propionate 10 mM, valerate 10 mM, SAHA 5 μM
Experimental: To study the effect of RA and HDAC inhibitors on miR-22 expression, HCT116 cells were treated with RA, butyrate, propionate, valerate, and SAHA. The SCFA concentrations used were within physiologic ranges^35.
as §3

[8] = test system: HCT116 colon cancer cells; assay: MTT cell viability assay in HCT116 cells; type: cell-based; conditions: RA 10 μM, butyrate 5 mM, SAHA 5 μM; for Cell viability (MTT assay): 24 hours; for Cell viability: 48 hours, propionate 10 mM, valerate 10 mM, vs. DMSO
Experimental: Cell viability was monitored by MTT assay.
HCT116 cells (American Type Culture Collection) were maintained in McCoy's 5a medium from Gibco (Life Technologies, Carlsbad, Calif.) with 10% FBS. Cells were plated (1×10^6 cells per 60-mm dish, 2×10^5 cells per 6-well plates, and 1×10^5 cells per 24-well plates) overnight prior to treatment or transfection.
Cells were stained with 3-(4,5-dimethylthiazol-2-O-2,5-diphenyltetrazolium bromide (MTT, Sigma-Aldrich, St. Louis, Mo.) and measured at 570 nm with Microplate Reader (Biotek, Winooski, Vt.).

NUR77 = assay: ChIP-qPCR and RT-PCR: NUR77 binding to BRE and CCND2 and their mRNA; type: cell-based; conditions: HCT116 cells
Experimental: as §2, §4

RARB and NUR77 genes = assay: ChIP-qPCR: HDAC recruitment and H3K9 acetylation at RARB and NUR77 genes in HCT116 cells; type: cell-based; conditions: RA 10 μM, butyrate 5 mM, SAHA 5 μM; for H3K9 acetylation of NUR77 and RARβ genes (ChIP-qPCR) / Recruitment of HDAC1, HDAC4, and SIRT1 to the regulatory region of NUR77 and RARβ (ChIP-qPCR): 24 hours
Experimental: Cell lysates were used for ChIP with antibodies specific for HDAC1, HDAC4, SIRT1, or acetylated H3K9, followed by qPCR using primers specific for the RARB and NUR77 genes. DMSO treated cells and IP using IgG were included as negative controls. […]inding was expressed relative to the IgG negative controls.
as §4

NUR77 and RARβ [9] = assay: Induction and localization of NUR77 and RARβ in HCT116 cells; type: cell-based; conditions: 48 hours, RA 10 μM, butyrate 5 mM, SAHA 5 μM, EGF 32 nM
Experimental: Proteins were immunoprecipitated by anti-NUR77 or anti-RARβ antibodies, or IgG, followed by Western blot using anti-RARβ or anti-NUR77 antibodies.
To study the effect of miR-22 in induction of cytosolic NUR77 by RA/butyrate, adenoviral-delivery of miR-22 inhibitors tagged with green fluorescence (adeno-miR-22 inhibitor-GFP, Applied Biological Materials Inc, Richond, BC) were used to infect HCT116 cells. At 48 hours post adenoviral infection, cells were treated with RA (10 μM) plus butyrate (5 mM) or DMSO for 24 hours. […] Cells were mounted in ProLong® Gold Antifade Reagent with DAPI (4′,6-diamidino-2-phenylindole, Life Technologies, Carlsbad, Calif.) and imaged under Keyence BZ-9000 microscope.

[10] = test system: Class I (HDAC1, 2, 3, and 8) and Class IIa (HDAC4, 5, 7, and 9); conditions: cited from earlier work
[11] = test system: Gpr41, Gpr43, Gpr109a, Pgc1α, Pepck, Fas; assay: Ileal and hepatic mRNA levels in mice after oral gavage; type: in vivo, C57BL/6 mice; conditions: RA 15 mg/kg and/or butyrate 500 mg/kg, oral gavage every other day for one week

| Structure (SMILES) | CYCLIN A2 levels [1] | CYCLIN A2 levels [2] | miR-22 induction (miR-22 [3]) | miR-22 induction (miR-22 [3]; listed as chenodeoxycholic acid) | Protein levels of HDAC1, HDAC4, SIRT1, and cyclin A2 (CCNA2) [4] | Acetylated NUR77 and RARβ (NUR77 and RARβ [5]) | RARB (RARβ) expression / transcription [6] | Increase of RARβ binding to the DR5 motif upstream of RARβ and CYP26A1 genes (RARβ) | miR-22 expression level (miR-22 [7]) | Cell viability (MTT assay) [8] | Cell viability [8] | NUR77 binding to BRE and CCND2 promoter regions and their mRNA levels (NUR77 transcriptional activity) (NUR77) | H3K9 acetylation of NUR77 and RARβ genes (ChIP-qPCR) (RARB and NUR77 genes) | Recruitment of HDAC1, HDAC4, and SIRT1 to the regulatory region of NUR77 and RARβ (ChIP-qPCR) (RARB and NUR77 genes) | Histone acetylation (H3K9Ac) in the gene encoding RARβ (ChIP-qPCR) (RARB and NUR77 genes) | Recruitment of HDAC4 and SIRT1 to the RARB gene (ChIP-qPCR) (RARB and NUR77 genes) | Induction and localization of NUR77 and RARβ (immunostaining) (NUR77 and RARβ [9]) | Inhibition of HDAC classes [10] | Expression of Gpr41 and Gpr43 [11] | Expression of Gpr109a [11] |
| --- | --- | --- | --- | --- | --- | --- | --- | --- | --- | --- | --- | --- | --- | --- | --- | --- | --- | --- | --- | --- |
| C[C@H](CCC(=O)O)[C@H]1CC[C@H]2[C@@H]3[C@H](O)C[C@@H]4C[C@H](O)CC[C@]4(C)[C@H]3CC[C@]12C [CDCA, chenodeoxycholic acid] | reduced CYCLIN A2 levels; also recorded: repression of cyclin A2 | reduced CYCLIN A2 levels; also recorded: repression of cyclin A2 | induces miR-22 | induce miR-22 | – | – | – | – | – | – | – | – | – | – | – | – | – | – | – | – |
| O=C(CCCCCCC(=O)Nc1ccccc1)NO [SAHA, suberanilohydroxamic acid] | – | – | – | – | reduced HDAC1, HDAC4, SIRT1, and CCNA2 protein levels | increased acetylated NUR77 and RARβ | upregulated | 2.5 folds | upregulated; also recorded: could induce miR-22; also recorded: induced; also recorded: increased miR-22 level | reduced cell viability | significantly reduced cell viability; also recorded: Markedly reduced cell viability | reduced NUR77 binding | increased H3K9 acetylation | decreased recruitment of HDAC1, HDAC4, and SIRT1 | increased histone acetylation | reduced the recruitment of HDAC4 and SIRT1 | markedly induced NUR77 and RARβ | – | – | – |
| CCCC(=O)[O-].[Na+] [butyrate, sodium butyrate] | – | – | – | – | reduced HDAC1, HDAC4, SIRT1, and CCNA2 protein levels | only increased acetylated NUR77 | upregulated | 4 folds | upregulated; also recorded: induce miR-22; also recorded: induced; also recorded: increased miR-22 level | reduced cell viability | Markedly reduced cell viability | reduced NUR77 binding | increased H3K9 acetylation | decreased recruitment of HDAC1, HDAC4, and SIRT1 | increased histone acetylation | reduced the recruitment of HDAC4 and SIRT1; also recorded: decreased the recruitment of HDAC4 and SIRT1 | markedly induced NUR77 and RARβ | inhibit Class I (HDAC1, 2, 3, and 8) and Class IIa (HDAC4, 5, 7, and 9) | could induce the expression | induced Gpr109a |
| CCC(=O)[O-].[Na+] [propionate, sodium propionate] | – | – | – | – | – | – | – | – | induced; also recorded: increased miR-22 level | – | Markedly reduced cell viability | – | – | – | – | – | – | – | – | – |
